Reference: US20250179051A1, “PYRIMIDINLY-OXY-QUINOLINE BASED HERBICIDAL COMPOUNDS” (SYNGENTA CROP PROTECTION AG, priority 2022, published 2025)

What was measured:
Type in all cases: in vivo
Settings in all cases: 250 g/ha, evaluated after 13 days, five-point scale
[1] = tested on: Setaria faberi (SETFA); assay: Pre-emergence herbicide glasshouse test
Protocol: (§1) Seeds of a variety of test species are sown in standard soil in pots Amaranthus retoflexus (AMARE), Amaranthus palmeri (AMAPA), Echinochloa crus-galli (ECHCG), Ipomoea hederacea (IPOHE), Setaria faberi (SETFA). After cultivation for one day (pre-emergence) or after 8 days cultivation (post-emergence) under controlled conditions in a glasshouse (at 24/16° C., day/night; 14 hours light; 65% humidity), the plants are sprayed with an aqueous spray solution derived from the formulation of the technical active ingredient in acetone/water (50:50) solution containing 0.5% Tween 20 (polyoxyethelyene sorbitan monolaurate, CAS RN 9005-64-5). Compounds are applied at 250 g/ha unless otherwise stated. The test plants are then grown in a glasshouse under controlled conditions in a glasshouse (at 24/16° C., day/night; 14 hours light; 65% humidity) and watered twice daily. After 13 days for pre and post-emergence, the test is evaluated for the percentage damage caused to the plant. The biological activities are shown in the following table on a five-point scale (5=81-100%; 4=61-80%; 3=41-60%; 2=21-40%; 1=0-20%).

[2] = tested on: Amaranthus retoflexus (AMARE); assay: Pre-emergence herbicide glasshouse test
Protocol: as §1

[3] = tested on: Amaranthus palmeri (AMAPA); assay: Pre-emergence herbicide glasshouse test
Protocol: as §1

[4] = tested on: Ipomoea hederacea (IPOHE); assay: Pre-emergence herbicide glasshouse test
Protocol: as §1

[5] = tested on: Echinochloa crus-galli (ECHCG); assay: Pre-emergence herbicide glasshouse test
Protocol: as §1

[6] = tested on: Setaria faberi (SETFA); assay: Post-emergence herbicide glasshouse test
Protocol: as §1

[7] = tested on: Amaranthus retoflexus (AMARE); assay: Post-emergence herbicide glasshouse test
Protocol: as §1

[8] = tested on: Amaranthus palmeri (AMAPA); assay: Post-emergence herbicide glasshouse test
Protocol: as §1

[9] = tested on: Ipomoea hederacea (IPOHE); assay: Post-emergence herbicide glasshouse test
Protocol: as §1

[10] = tested on: Echinochloa crus-galli (ECHCG); assay: Post-emergence herbicide glasshouse test
Protocol: as §1

SMILES | percentage damage caused to the plant, SETFA [1] | percentage damage caused to the plant, AMARE [2] | percentage damage caused to the plant, AMAPA [3] | percentage damage caused to the plant, IPOHE [4] | percentage damage caused to the plant, ECHCG [5] | percentage damage caused to the plant, SETFA [6] | percentage damage caused to the plant, AMARE [7] | percentage damage caused to the plant, AMAPA [8] | percentage damage caused to the plant, IPOHE [9] | percentage damage caused to the plant, ECHCG [10]
CCNC(=O)CCc1nc(C(F)(F)F)nc2cccc(Oc3ncc(Cl)cn3)c12 [Compound 1.012, 3-[5-(5-chloropyrimidin-2-yl)oxy-2-(trifluoromethyl)quinazolin-4-yl]-N-ethyl-propanamide] | 1 (1=0-20%) | 1 (1=0-20%) | 2 (2=21-40%) | 1 (1=0-20%) | 1 (1=0-20%) | 1 (1=0-20%) | 2 (2=21-40%) | 3 (3=41-60%) | 1 (1=0-20%) | 1 (1=0-20%)
OCCCc1nc(C(F)(F)F)nc2cccc(Oc3ncc(Cl)cn3)c12 [Compound 1.039, 3-[5-(5-chloropyrimidin-2-yl)oxy-2-(trifluoromethyl)quinazolin-4-yl]propan-1-ol] | 2 (2=21-40%) | 3 (3=41-60%) | 2 (2=21-40%) | 1 (1=0-20%) | 2 (2=21-40%) | 1 (1=0-20%) | 4 (4=61-80%) | 3 (3=41-60%) | 3 (3=41-60%) | 1 (1=0-20%)
CO/N=C/CCc1nc(C(F)(F)F)nc2cccc(Oc3ncc(Cl)cn3)c12 [Compound 1.025, (E)-3-[5-(5-chloropyrimidin-2-yl)oxy-2-(trifluoromethyl)quinazolin-4-yl]-N-methoxy-propan-1-imine] | 5 (5=81-100%) | 5 (5=81-100%) | 5 (5=81-100%) | 4 (4=61-80%) | 5 (5=81-100%) | 5 (5=81-100%) | 5 (5=81-100%) | 4 (4=61-80%) | 4 (4=61-80%) | 5 (5=81-100%)
FC(F)(F)c1nc(CCC2CCOC2)c2c(Oc3ncc(Cl)cn3)cccc2n1 (stereo not drawn) [Compound 1.031] | 5 (5=81-100%) | 5 (5=81-100%) | 5 (5=81-100%) | 5 (5=81-100%) | 5 (5=81-100%) | 5 (5=81-100%) | 5 (5=81-100%) | 4 (4=61-80%) | 5 (5=81-100%) | 5 (5=81-100%)
ON=CCCc1nc(C(F)(F)F)nc2cccc(Oc3ncc(Cl)cn3)c12 [Compound 1.021] | 3 (3=41-60%) | 4 (4=61-80%) | 4 (4=61-80%) | 1 (1=0-20%) | 3 (3=41-60%) | 2 (2=21-40%) | 5 (5=81-100%) | 4 (4=61-80%) | 2 (2=21-40%) | 2 (2=21-40%)
FC(F)(F)c1nc(CBr)c2c(Oc3ncc(Cl)cn3)cccc2n1 [Compound 1.048, 4-(bromomethyl)-5-(5-chloropyrimidin-2-yl)oxy-2-(trifluoromethyl)quinazoline] | 4 (4=61-80%) | 5 (5=81-100%) | 5 (5=81-100%) | 1 (1=0-20%) | 3 (3=41-60%) | 4 (4=61-80%) | 5 (5=81-100%) | 4 (4=61-80%) | 2 (2=21-40%) | 2 (2=21-40%)
Fc1ccc(-c2nc(C(F)(F)F)nc3cccc(Oc4ncc(Cl)cn4)c23)cc1 [Compound 1.042] | 1 (1=0-20%) | 1 (1=0-20%) |  | 1 (1=0-20%) | 1 (1=0-20%) | 1 (1=0-20%) | 3 (3=41-60%) |  | 3 (3=41-60%) | 1 (1=0-20%)
FC(F)(F)c1nc(CCC2CC2)c2c(Oc3ncc(Cl)cn3)ccc(Br)c2n1 [Compound 1.060] | 2 (2=21-40%) | 1 (1=0-20%) | 2 (2=21-40%) | 1 (1=0-20%) | 1 (1=0-20%) | 2 (2=21-40%) | 3 (3=41-60%) | 3 (3=41-60%) | 3 (3=41-60%) | 1 (1=0-20%)
Cc1cnc(Oc2cccc3nc(C(F)(F)F)nc(CCC4CC4)c23)nc1 [Compound 1.015, 4-(2-cyclopropylethyl)-5-(5-methylpyrimidin-2-yl)oxy-2-(trifluoromethyl)quinazoline] | 5 (5=81-100%) | 5 (5=81-100%) | 5 (5=81-100%) | 3 (3=41-60%) | 5 (5=81-100%) | 5 (5=81-100%) | 4 (4=61-80%) | 2 (2=21-40%) | 3 (3=41-60%) | 4 (4=61-80%)
N#CCCc1nc(C(F)(F)F)nc2cccc(Oc3ncc(Cl)cn3)c12 [Compound 1.046, 3-[5-(5-chloropyrimidin-2-yl)oxy-2-(trifluoromethyl)quinazolin-4-yl]propanenitrile] | 5 (5=81-100%) | 5 (5=81-100%) | 5 (5=81-100%) | 5 (5=81-100%) | 5 (5=81-100%) | 2 (2=21-40%) |  | 5 (5=81-100%) | 4 (4=61-80%) | 2 (2=21-40%)
Fc1cnc(Oc2cccc3nc(C(F)(F)F)nc(CCC4CC4)c23)nc1 [Compound 1.064] |  | 5 (5=81-100%) | 5 (5=81-100%) | 5 (5=81-100%) | 4 (4=61-80%) |  | 5 (5=81-100%) | 4 (4=61-80%) | 4 (4=61-80%) | 4 (4=61-80%)
Fc1ccc(-c2nc(C(F)(F)F)nc3cccc(Oc4ncc(Cl)cc4F)c23)cc1 [Compound 1.040] | 1 (1=0-20%) | 1 (1=0-20%) |  | 1 (1=0-20%) | 1 (1=0-20%) | 1 (1=0-20%) | 2 (2=21-40%) |  | 2 (2=21-40%) | 1 (1=0-20%)
FC(F)(F)c1nc(CCC2CCOCC2)c2c(Oc3ncc(Cl)cn3)cccc2n1 [Compound 1.044] | 5 (5=81-100%) | 5 (5=81-100%) |  | 5 (5=81-100%) | 5 (5=81-100%) | 5 (5=81-100%) | 5 (5=81-100%) |  | 4 (4=61-80%) | 5 (5=81-100%)
C=CCCc1nc(C(F)(F)F)nc2cccc(Oc3ncc(Cl)cn3)c12 [Compound 1.043, 4-but-3-enyl-5-(5-chloropyrimidin-2-yl)oxy-2-(trifluoromethyl)quinazoline] | 5 (5=81-100%) | 4 (4=61-80%) |  | 1 (1=0-20%) | 5 (5=81-100%) | 4 (4=61-80%) | 5 (5=81-100%) |  | 3 (3=41-60%) | 4 (4=61-80%)
